Assay results as given in patent US10765114B2, “4-amino-6-(pyridyl and 2-substitutedphenyl)-picolinates and 6-amino-2-(pyridyl and 2-substitutedphenyl)-pyrimidine-4-carboxylates and their use as herbicides” (Dow AgroSciences LLC, priority 2013, dated 2020).

system: SEBEX: hemp sesbania, Sesbania exaltata; test: Postemergence Herbicidal Activity in Direct Seeded Rice; format: in vivo; conditions: 35 g ai/ha, postemergence, direct seeded rice
From the text: (§1) Seeds or nutlets of the desired test plant species were planted in a soil matrix prepared by mixing a loam soil (43 percent silt, 19 percent clay, and 38 percent sand, with a pH of about 8.1 and an organic matter content of about 1.5 percent) and river sand in an 80 to 20 ratio. The soil matrix was contained in plastic pots with a surface area of 139.7 cm^2. When required to ensure good germination and healthy plants, a fungicide treatment and/or other chemical or physical treatment was applied. The plants were grown for 10-17 days in a greenhouse with an approximate 14-h photoperiod which was maintained at about 29° C. during the day and 26° C. during the night. Nutrients and water were added on a regular basis and supplemental lighting was provided with overhead metal halide 1000-Watt lamps as necessary. The plants were employed for testing when they reached the second or third true leaf stage.
(§2) A weighed amount, determined by the highest rate to be tested, of each test compound was placed in 25 mL glass vials and dissolved in a volume of 97:3 v/v acetone-DMSO to obtain 12× stock solutions. […] The concentrated stock solutions were added to the spray solutions so that the final acetone and DMSO concentrations were 16.2% and 0.5%, respectively. Spray solutions were diluted to the appropriate final concentrations with the addition of 10 mL of an aqueous mixture of 1.5% (v/v) Agri-dex crop oil concentrate. The final spray solutions contained 1.25% (v/v) Agri-dex crop oil concentrate. Compound requirements are based upon a 12 mL application volume at a rate of 187 L/ha. Formulated compounds were applied to the plant material with an overhead Mandel track sprayer equipped with 8002E nozzles calibrated to deliver 187 L/ha over an application area of 0.503 square meters (m^2) at a spray height of 18 inches (43 cm) above average plant canopy height. Control plants were sprayed in the same manner with the solvent blank.
(§3) The treated plants and control plants were placed in a greenhouse as described above and watered by sub-irrigation to prevent wash-off of the test compounds. After 20-22 days, the condition of the test plants, compared with that of the untreated plants, was determined visually and scored on a scale of 0 to 100 percent where 0 corresponds to no injury and 100 corresponds to complete kill and presented as indicated in Table A.
(§4) By applying the well-accepted probit analysis as described by J. Berkson in Journal of the American Statistical Society, 48, 565 (1953) and by D. Finney in “Probit Analysis” Cambridge University Press (1952), herbicidal injury of a specific compound at various rates can be used to calculate GR20, GR50, GR80 and GR90 values, which are defined as growth reduction factors that correspond to the effective dose of herbicide required to provide plant growth reduction (GR) of 20 percent, 50 percent, 80 percent and 90 percent, respectively. Probit analysis was applied to data collected from multiple dose rates of individual compounds utilizing the procedures explained in the following examples. The analysis of those dose rates is captured in the following tables

| Structure (SMILES) | Visual Growth Reduction (%) 21 Days After Application, SEBEX |
| --- | --- |
| COC(=O)c1nc(-c2ccc(Cl)nc2F)c(F)c(N)c1Cl [Compound 45] | A (95-100) |

same assay, conditions: 70 g ai/ha, postemergence, direct seeded rice

| Structure (SMILES) | Visual Growth Reduction (%) 21 Days After Application, SEBEX |
| --- | --- |
| COC(=O)c1nc(-c2ccc(Cl)nc2F)c(F)c(N)c1Cl [Compound 45] | A (95-100) |

same assay, conditions: Growth reduction of 50% of plant growth, probit analysis

| Structure (SMILES) | GR50, SEBEX [g ai/ha] |
| --- | --- |
| COC(=O)c1nc(-c2ccc(Cl)nc2F)c(F)c(N)c1Cl [Compound 45] | 1 |

same assay, conditions: Growth reduction of 80% of plant growth, probit analysis

| Structure (SMILES) | GR80, SEBEX [g ai/ha] |
| --- | --- |
| COC(=O)c1nc(-c2ccc(Cl)nc2F)c(F)c(N)c1Cl [Compound 45] | 2 |

system: SCPJU: Japanese bulrush, Schoenoplectus juncoides; test: as above; format: in vivo; conditions: Growth reduction of 50% of plant growth, probit analysis
From the text: as §1, §2, §3, §4

| Structure (SMILES) | GR50, SCPJU [g ai/ha] |
| --- | --- |
| COC(=O)c1nc(-c2ccc(Cl)nc2F)c(F)c(N)c1Cl [Compound 45] | 1 |

same assay, conditions: Growth reduction of 80% of plant growth, probit analysis

| Structure (SMILES) | GR80, SCPJU [g ai/ha] |
| --- | --- |
| COC(=O)c1nc(-c2ccc(Cl)nc2F)c(F)c(N)c1Cl [Compound 45] | 1 |

system: BRAPP: broadleaf signalgrass, Brachiaria platyphylla; test: as above; format: in vivo; conditions: 35 g ai/ha, postemergence, direct seeded rice
From the text: as §1, §2, §3, §4

| Structure (SMILES) | Visual Growth Reduction (%) 21 Days After Application, BRAPP |
| --- | --- |
| COC(=O)c1nc(-c2ccc(Cl)nc2F)c(F)c(N)c1Cl [Compound 45] | G (0-29) |

same assay, conditions: 70 g ai/ha, postemergence, direct seeded rice

| Structure (SMILES) | Visual Growth Reduction (%) 21 Days After Application, BRAPP |
| --- | --- |
| COC(=O)c1nc(-c2ccc(Cl)nc2F)c(F)c(N)c1Cl [Compound 45] | G (0-29) |

same assay, conditions: Growth reduction of 50% of plant growth, probit analysis

| Structure (SMILES) | GR50, BRAPP [g ai/ha] |
| --- | --- |
| COC(=O)c1nc(-c2ccc(Cl)nc2F)c(F)c(N)c1Cl [Compound 45] | >140 |

same assay, conditions: Growth reduction of 80% of plant growth, probit analysis

| Structure (SMILES) | GR80, BRAPP [g ai/ha] |
| --- | --- |
| COC(=O)c1nc(-c2ccc(Cl)nc2F)c(F)c(N)c1Cl [Compound 45] | >140 |

system: CYPSS: sedge including small-flower flatsedge (Cyperus difformis), yellow nutsedge (Cyperus esculentus), rice flatsedge (Cyperus iria); test: as above; format: in vivo; conditions: 35 g ai/ha, postemergence, direct seeded rice
From the text: as §1, §2, §3, §4

| Structure (SMILES) | Visual Growth Reduction (%) 21 Days After Application, CYPSS |
| --- | --- |
| COC(=O)c1nc(-c2ccc(Cl)nc2F)c(F)c(N)c1Cl [Compound 45] | B (85-94) |

same assay, conditions: 70 g ai/ha, postemergence, direct seeded rice

| Structure (SMILES) | Visual Growth Reduction (%) 21 Days After Application, CYPSS |
| --- | --- |
| COC(=O)c1nc(-c2ccc(Cl)nc2F)c(F)c(N)c1Cl [Compound 45] | A (95-100) |

same assay, conditions: Growth reduction of 50% of plant growth, probit analysis

| Structure (SMILES) | GR50, CYPSS [g ai/ha] |
| --- | --- |
| COC(=O)c1nc(-c2ccc(Cl)nc2F)c(F)c(N)c1Cl [Compound 45] | 3 |

same assay, conditions: Growth reduction of 80% of plant growth, probit analysis

| Structure (SMILES) | GR80, CYPSS [g ai/ha] |
| --- | --- |
| COC(=O)c1nc(-c2ccc(Cl)nc2F)c(F)c(N)c1Cl [Compound 45] | 7 |

system: ORYSS: Oryza sativa; test: as above; format: in vivo; conditions: 35 g ai/ha, postemergence, direct seeded rice
From the text: as §1, §2, §3, §4

| Structure (SMILES) | Visual Growth Reduction (%) 21 Days After Application, ORYSS |
| --- | --- |
| COC(=O)c1nc(-c2ccc(Cl)nc2F)c(F)c(N)c1Cl [Compound 45] | G (0-29) |

same assay, conditions: 70 g ai/ha, postemergence, direct seeded rice

| Structure (SMILES) | Visual Growth Reduction (%) 21 Days After Application, ORYSS |
| --- | --- |
| COC(=O)c1nc(-c2ccc(Cl)nc2F)c(F)c(N)c1Cl [Compound 45] | G (0-29) |

same assay, conditions: Growth reduction of 20% of plant growth, probit analysis

| Structure (SMILES) | GR20, ORYSS [g ai/ha] |
| --- | --- |
| COC(=O)c1nc(-c2ccc(Cl)nc2F)c(F)c(N)c1Cl [Compound 45] | >140 |

system: ECHSS: including barnyardgrass, (Echinochloa crus-galli), junglerice, (Echinochloa colonum); test: as above; format: in vivo; conditions: 35 g ai/ha, postemergence, direct seeded rice
From the text: as §1, §2, §3, §4

| Structure (SMILES) | Visual Growth Reduction (%) 21 Days After Application, ECHSS |
| --- | --- |
| COC(=O)c1nc(-c2ccc(Cl)nc2F)c(F)c(N)c1Cl [Compound 45] | F (30-44) |

same assay, conditions: 70 g ai/ha, postemergence, direct seeded rice

| Structure (SMILES) | Visual Growth Reduction (%) 21 Days After Application, ECHSS |
| --- | --- |
| COC(=O)c1nc(-c2ccc(Cl)nc2F)c(F)c(N)c1Cl [Compound 45] | B (85-94) |

same assay, conditions: Growth reduction of 50% of plant growth, probit analysis

| Structure (SMILES) | GR50, ECHSS [g ai/ha] |
| --- | --- |
| COC(=O)c1nc(-c2ccc(Cl)nc2F)c(F)c(N)c1Cl [Compound 45] | 16 |

same assay, conditions: Growth reduction of 80% of plant growth, probit analysis

| Structure (SMILES) | GR80, ECHSS [g ai/ha] |
| --- | --- |
| COC(=O)c1nc(-c2ccc(Cl)nc2F)c(F)c(N)c1Cl [Compound 45] | >140 |

system: LEFSS: sprangletop including Chinese sprangletop (Leptochloa chinensis), green sprangletop (Leptochloa dubia); test: as above; format: in vivo; conditions: 35 g ai/ha, postemergence, direct seeded rice
From the text: as §1, §2, §3, §4

| Structure (SMILES) | Visual Growth Reduction (%) 21 Days After Application, LEFSS |
| --- | --- |
| COC(=O)c1nc(-c2ccc(Cl)nc2F)c(F)c(N)c1Cl [Compound 45] | G (0-29) |

same assay, conditions: 70 g ai/ha, postemergence, direct seeded rice

| Structure (SMILES) | Visual Growth Reduction (%) 21 Days After Application, LEFSS |
| --- | --- |
| COC(=O)c1nc(-c2ccc(Cl)nc2F)c(F)c(N)c1Cl [Compound 45] | D (60-74) |

same assay, conditions: Growth reduction of 50% of plant growth, probit analysis

| Structure (SMILES) | GR50, LEFSS [g ai/ha] |
| --- | --- |
| COC(=O)c1nc(-c2ccc(Cl)nc2F)c(F)c(N)c1Cl [Compound 45] | >140 |

same assay, conditions: Growth reduction of 80% of plant growth, probit analysis

| Structure (SMILES) | GR80, LEFSS [g ai/ha] |
| --- | --- |
| COC(=O)c1nc(-c2ccc(Cl)nc2F)c(F)c(N)c1Cl [Compound 45] | >140 |
